The nature of data set [1]: (§1) Growth inhibition of human NCI60 cells incubated for 48 hrs by SRB assay. The data set is classed as functional. Conditions: NCI60, 48 h. (In SRB staining, fixed cells bind dye roughly in proportion to their protein.)
In data set [2] the target is T1, Dihydrofolate reductase (Homo sapiens) (UniProt P00374).
T1 sequence (whole entry): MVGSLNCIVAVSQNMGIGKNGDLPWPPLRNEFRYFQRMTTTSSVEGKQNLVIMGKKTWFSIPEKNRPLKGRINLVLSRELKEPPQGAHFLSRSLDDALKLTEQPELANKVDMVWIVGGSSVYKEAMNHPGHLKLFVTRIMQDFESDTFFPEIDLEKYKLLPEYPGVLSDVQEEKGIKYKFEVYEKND
Description: Inhibition of DHFR reduction in conversion of DHF to THF at 10 uM in presence of NADPH by DHFR assay.

For a further data set, the system named is NCI-H522. Kind of data set: Growth inhibition of human NCI-H522 cells incubated for 48 hrs by SRB assay. The data set is classed as functional. Conditions: NCI-H522, 48 h.
In data set [3] the target is Thymidylate synthase (Homo sapiens) (UniProt P04818). Kind of data set: Binding affinity to thymidylate synthase assessed as change in UV-Vis spectra at 10 uM in HEPES buffer at pH 7.2 by UV-Visible spectroscopy.
Sequence of Thymidylate synthase (Homo sapiens) (P04818 2-313 limits assumed): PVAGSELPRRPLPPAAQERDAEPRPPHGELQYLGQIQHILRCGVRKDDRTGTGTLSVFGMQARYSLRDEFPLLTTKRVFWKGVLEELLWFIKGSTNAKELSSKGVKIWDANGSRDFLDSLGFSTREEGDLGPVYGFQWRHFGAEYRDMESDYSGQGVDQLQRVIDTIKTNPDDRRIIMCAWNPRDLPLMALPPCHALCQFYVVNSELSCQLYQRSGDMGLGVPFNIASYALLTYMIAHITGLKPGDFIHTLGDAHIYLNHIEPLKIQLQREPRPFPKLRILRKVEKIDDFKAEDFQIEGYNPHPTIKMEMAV
The test system of another data set is MCF7. Kind of data set: Growth inhibition of human MCF7 cells incubated for 48 hrs by SRB assay. The data set is classed as functional. Particulars: MCF7, 48 h.
Another data set concerns MDA-MB-468. Kind of data set: Growth inhibition of human MDA-MB-468 cells incubated for 48 hrs by SRB assay. The data set is classed as functional. Conditions: MDA-MB-468, 48 h.
Data set [4] in a line: Toxicity against human NCI60 cells incubated for 48 hrs by SRB assay. The data set is classed as cell-based. Particulars: nci60, 48 h.
For another data set, the system named is A498. Kind of data set: Growth inhibition of human A498 cells incubated for 48 hrs by SRB assay. The data set is classed as functional. Particulars: A498, 48 h.
The next data set relates to Hs-578T. Description: Growth inhibition of human Hs578T cells incubated for 48 hrs by SRB assay. The data set is classed as functional.
Data set [5] is described as follows: Total tumor growth inhibition of human NCI60 cells incubated for 48 hrs by SRB assay. Particulars: NCI60, 48 h. The data set is classed as functional.
In data set [6] the target is Thymidine phosphorylase (Homo sapiens) (UniProt P19971). Kind of data set: Binding affinity to […] assessed as change in UV-Vis spectra at 10 uM in HEPES buffer at pH 7.2 by UV-Visible spectroscopy.
Sequence of Thymidine phosphorylase (Homo sapiens) (P19971 whole entry, looked up): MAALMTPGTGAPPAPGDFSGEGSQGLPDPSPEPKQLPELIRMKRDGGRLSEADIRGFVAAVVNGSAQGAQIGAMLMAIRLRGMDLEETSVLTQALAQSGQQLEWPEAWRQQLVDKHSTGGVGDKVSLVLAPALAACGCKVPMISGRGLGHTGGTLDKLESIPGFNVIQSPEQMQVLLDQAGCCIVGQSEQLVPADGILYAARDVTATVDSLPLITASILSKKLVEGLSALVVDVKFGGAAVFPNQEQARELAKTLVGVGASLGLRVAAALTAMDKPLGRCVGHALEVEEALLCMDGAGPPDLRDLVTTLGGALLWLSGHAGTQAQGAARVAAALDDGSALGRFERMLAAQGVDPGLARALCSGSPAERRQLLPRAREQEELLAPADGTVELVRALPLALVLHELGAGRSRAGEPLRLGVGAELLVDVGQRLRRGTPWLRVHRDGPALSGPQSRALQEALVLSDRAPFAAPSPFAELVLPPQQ
Another data set deals with OVCAR-3. Description: Growth inhibition of human OVCAR3 cells incubated for 48 hrs by SRB assay. The data set is classed as functional. Conditions: OVCAR-3, 48 h.
A further data set relates to SR. Kind of data set: Growth inhibition of human SR cells incubated for 48 hrs by SRB assay. The data set is classed as functional.
The target in data set [7] is T1, Dihydrofolate reductase (Homo sapiens). Description: Inhibition of DHFR reduction in conversion of DHF to THF at 100 uM in presence of NADPH by DHFR assay.
For data set [8] the target is unchanged. Description: Inhibition of DHFR reduction in conversion of DHF to THF at 1 uM in presence of NADPH by DHFR assay.
A short description of the next data set: cells. Particulars: Homo sapiens, NCI60, 48 h.
Data set [9] deals with T1, Dihydrofolate reductase (Homo sapiens). Kind of data set: Binding affinity to DHFR at 48 mM by [1H]NMR spectroscopy.
Data set [10] shares this target. Kind of data set: Inhibition of DHFR reduction in conversion of DHF to THF at 10 nM in presence of NADPH by DHFR assay.
Data set [11] shares this target.
Description: Inhibition of DHFR reduction in conversion of DHF to THF in presence of NADPH by DHFR assay
In another data set the test system is UACC-257. Kind of data set: Growth inhibition of human UACC257 cells incubated for 48 hrs by SRB assay. The data set is classed as functional. Conditions: UACC-257, 48 h.
The target in data set [12] is T1, Dihydrofolate reductase (Homo sapiens). Description: Inhibition of DHFR reduction in conversion of DHF to THF at 100 nM in presence of NADPH by DHFR assay.
The nature of data set [13]: Therapeutic index, ratio of LC50 for human NCI60 cells to GI50 for human NCI60 cells. Conditions: read-out: TI. The data set is classed as cell-based.
For data set [14], the target named is T1, Dihydrofolate reductase (Homo sapiens). Description: Binding affinity to DHFR assessed as change in UV-Vis spectra at 10 uM in HEPES buffer at pH 7.2 by UV-Visible spectroscopy.
Data set [15] shares this target. Description: Binding affinity to DHFR by [1H]NMR spectroscopy.
A further data set concerns COLO 205. Kind of data set: Growth inhibition of human COLO205 cells incubated for 48 hrs by SRB assay. The data set is classed as functional. Conditions: COLO 205, 48 h, pooled result: one value given for 7 cell lines, strains, targets or settings.
The subject of the next data set is NCI60. The data set is described as §1. The data set is classed as functional.
For data set [16], the target named is T1, Dihydrofolate reductase (Homo sapiens). Kind of data set: Binding affinity to DHFR at 32 mM by [1H]NMR spectroscopy.

Results on nine molecules are retold here after ChEMBL document CHEMBL2163263, “Mechanism inspired development of rationally designed dihydrofolate reductase inhibitors as anticancer agents” (J Med Chem, 2012).

Calls of active or inactive are those of the source. No cut-off for these calls is given here.

Broadly, the GI50 is the concentration that inhibits growth by half. The low end stands for greater sensitivity of the cells, the high end for lower sensitivity of the cells. What is called inhibition is the change of the read-out against control, counted positive when it falls. The LC50 is the concentration that kills 50% of the test population. Lower therefore signals a more lethal substance. One may read the TGI as the concentration at which net growth stops. A word on the IC90: it is the concentration at which the effect reaches the 90% level. The low end stands for greater potency, the high end for weaker potency. A word on the IC80: it is the concentration needed for an effect of 80%. Lower therefore signals greater potency.

With `COc1cc(/C=C2\C(=O)Nc3ccccc32)cc(OC)c1O`, the concentration for 50% growth inhibition (GI50) is 3500 nM in data set [1]; 600 nM with NCI-H522; 600 nM in the data set with MCF7; 600 nM in the data set on MDA-MB-468; 600 nM in the data set with A498; 600 nM in the data set on Hs-578T. The concentration for 50% growth inhibition (GI50) with OVCAR-3, in the data set on SR, in “cells” and with UACC-257 was 600 nM throughout. Besides, the inhibition in [2], in [7], in data set [8], in [10] and in data set [12] was more than 90% each time. Besides, the result in [3] and in [6] was inactive. In addition, the LC50 in data set [4] is 72400 nM. Further, in [5], the TGI was found to be 21400 nM. Moreover, the outcome in data set [9] was Active. The molecule also yielded a 90% effect concentration (IC90) in data set [11] of 1360 nM.

Consider `CC1=NN(c2cccc(Cl)c2)C(=O)/C1=C\c1c[nH]c2ccc(Br)cc12`, for which the selectivity ratio in [13] amounted to 12.8. In addition, in [1], halving of growth (GI50) required 3900 nM. Also, in data set [14], the result was inactive. In [4], this molecule came in with an LC50 of 50100 nM. For the same molecule, in data set [5], net growth stopped (TGI) at 17700 nM. Moreover, the result in data set [15] was Active.

On to `CC1=NN(c2cccc(Cl)c2)C(=O)/C1=C\c1cn(CC(O)CN2CCCCC2)c2ccccc12` (centres undefined), for which, in data set [13], the selectivity ratio is 18.4. The GI50 in data set [1] came to 5500 nM; in the data set on COLO 205, 1700 nM. Moreover, the outcome in [14] was inactive. Moreover, in data set [4], the LC50 came to 47800 nM. Further, the total growth inhibition concentration (TGI) in [5] was 16900 nM. In addition, the outcome in data set [15] was Active. For the same molecule, the 80% effect concentration (IC80) in data set [11] turned out to be 1060 nM.

`O=C1/C(=C\c2cn(CC(O)CN3CCCCC3)c3ccccc23)c2ccccc2N1c1c(Cl)cccc1Cl` (centres undefined): in data set [13], the selectivity ratio stood at 5.1. The molecule also yielded a concentration for 50% growth inhibition (GI50) in [1] of 1800 nM. The outcome in data set [14] was inactive. This molecule registered an LC50 in data set [4] of 9100 nM. In addition, total growth inhibition in [5] (TGI) required 3200 nM. Further, the result in data set [15] was Active. For the same molecule, the IC80 in [11] was found to be 890 nM.

As to `COc1ccc2c(c1)c(CC(=O)O)c(C)n2C(=O)c1ccc(Cl)cc1` [INDOMETHACIN], it took 64300 nM to inhibit growth in data set [1] by half (GI50).

In the case of `COc1cc(/C=C2\C(=O)N(c3cccc(Cl)c3)N=C2C)cc(OC)c1O`, in the data set with NCI60, the “growth inhibition (GI)” value is “inactive”. In addition, the outcome in data set [14] and in data set [15] was inactive.

Take `COc1cc(/C=C2\C(=O)N(c3c(Cl)cccc3Cl)c3ccccc32)cc(OC)c1O`: the selectivity ratio in data set [13] amounted to 41.1. For the same molecule, the GI50 in data set [1] worked out at 1500 nM. Further, the K in data set [14] was found to be 1.6 ×10⁷ /M. For the same molecule, the outcome in [16] was Active. Also, the result in [3] and in data set [6] was inactive. This molecule also showed an LC50 in [4] of 61600 nM. The molecule further displayed a TGI in [5] of 19400 nM. Besides, the IC80 in [11] is 10000 nM.

On to `O=C1/C(=C\c2ccccn2)c2ccccc2N1c1c(Cl)cccc1Cl`, for which the selectivity ratio in [13] is 13.7. The molecule further showed a GI50 in [1] of 2000 nM. In data set [14], the result was inactive. The molecule also returned an LC50 in [4] of 27500 nM. The molecule further registered a TGI in data set [5] of 9100 nM. Further, the result in [15] was Active.

For `COc1cc(C=C2C(=O)N(C)C(=O)N(C)C2=O)cc(OC)c1O`, the “growth inhibition (GI)” value with NCI60 is “inactive”. In addition, the outcome in [14] and in data set [15] was inactive.
